The source of these data is US9193731B2, “Antimicrobial compounds and methods of making and using the same” (Melinta Therapeutics, Inc., priority 2009, dated 2015).

Where only a bound is given, the exact number is not on record here.

A word on the MIC: it is the lowest concentration found to suppress growth.

For this assay, the system named is Escherichia coli strain ATCC25922. The assay is described as follows: standard microdilution assay to determine minimum inhibitory concentrations (MICs). Type of assay: cell-based. The following applies: for MIC: Escherichia coli, ATCC25922, Escherichia coli strain ATCC25922, microdilution, read-out: E. coli ATCC25922 MIC; for E. coli ATCC25922 MIC: Escherichia coli strain ATCC25922, microdilution. Summed up:
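E. coli strain ATCC25922 tested per CLSI microdilution methodology (about 100 microliters per well) to find minimum inhibitory concentrations. Activity scored categorically at a 16 micrograms/ml threshold.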
A general note: Dilution methods test growth across graded concentrations, often in twofold steps.

In the case of `NCCCNCc1ccc(-n2cc3cc(-c4ccccc4C(F)(F)F)[nH]c3nc2=O)cc1` [Compound 292], the MIC is greater than 16 µg/mL.

In the case of `N=C(N)NCCCNC(c1ccc(-n2cc3cc(-c4cc(CCCCN)cc(OC(F)(F)F)c4)[nH]c3nc2=O)cc1)C(F)(F)F` (centres unmarked) [Compound 2081a], the “E. coli ATCC25922 MIC” value is reported as “+ (a “+” indicates that the compound has an MIC value of 16 micrograms/ml or less)”.

Consider `NCc1ccc(-n2cc3cc(-c4ccc(S(=O)(=O)N(CCCN5CCCCC5)C5CCNCC5)cc4)[nH]c3nc2=O)cc1` [Compound 948], for which the MIC is greater than 16 µg/mL.

Turning to `CN(C)CCOc1ccccc1-c1cc2cn(-c3ccc(CN)cc3)c(=O)nc2[nH]1` [Compound 1111], the MIC is greater than 16 µg/mL.

For `N=C(N)NCCCNC(=O)c1ccc(-n2cc3cc(-c4cc(CCCCN)cc(C(F)(F)F)c4)[nH]c3nc2=O)cc1` [Compound 2034a], the MIC was less than 16 µg/mL.

With `NOCCNC(=O)c1ccc(-n2cc3cc(-c4ccc(S(=O)(=O)NC5CCNCC5)cc4)[nH]c3nc2=O)cc1` [Compound 1136], the MIC is greater than 16 µg/mL.

As to `N=C(N)NCCCCN1CCC(n2cc3c(nc2=O)[nH]c2ccccc23)C1` (centres unmarked) [Compound 562, N-{4-[3-(2-oxo-2,9-dihydro-1,3,9-triaza-fluoren-3-yl)-pyrrolidine-1-yl]-butyl}-guanidine], the MIC was greater than 16 µg/mL.

`NCCCNCc1ccc(-n2cc3cc(C4=CCCCC4)[nH]c3nc2=O)cc1` [Compound 623]: the MIC is greater than 16 µg/mL.

Regarding `NCCCNCc1ccc(-n2cc3cc(CCN4CCS(=O)(=O)CC4)[nH]c3nc2=O)cc1` [Compound 784], the MIC was greater than 16 µg/mL.

`N=C(N)NCCCNCc1ccc(-n2cc3cc(-c4cccc(CN5CCNCC5)c4)[nH]c3nc2=O)cc1` [Compound 1233]: the MIC is less than 16 µg/mL.

As to `N=C(N)NCCCNCc1ccc(-n2cc3cc(-c4ccc(S(=O)(=O)N(CCCc5ccncc5)C5CCNCC5)cc4)[nH]c3nc2=O)cc1` [Compound 838], the “E. coli ATCC25922 MIC” value was “+ (a “+” indicates that the compound has an MIC value of 16 micrograms/ml or less)”.

In the case of `N=C(N)NCCCNCc1ccc(-n2cc3cc(CCS(=O)(=O)N(CCCc4ccccc4)C4CCNCC4)[nH]c3nc2=O)cc1` [Compound 990], the “E. coli ATCC25922 MIC” value was “+ (a “+” indicates that the compound has an MIC value of 16 micrograms/ml or less)”.

Take `CS(=O)(=O)NCc1cc(OCC(F)CN)cc(-c2cc3cn(-c4ccc(CNCCCNC(=N)N)cc4)c(=O)nc3[nH]2)c1` (centres unmarked) [Compound 2037a]: the “E. coli ATCC25922 MIC” value is recorded as “− (a “−” indicates that the compound has an MIC value greater than 16 micrograms/ml)”.

Turning to `NCCCNCc1ccc(-n2cc3cc(-c4cccc(NCC(=O)N5CCNCC5)c4)[nH]c3nc2=O)cc1` [Compound 644], the MIC is less than 16 µg/mL.

`N=C(N)N[C@@H]1CCN(Cc2ccc(-n3cc4cc(-c5ccc(S(=O)(=O)N(CCCn6cnnc6)C6CCNCC6)cc5)[nH]c4nc3=O)cc2)C1` [Compound 1219]: the “E. coli ATCC25922 MIC” value is recorded as “− (a “−” indicates that the compound has an MIC value greater than 16 micrograms/ml)”.

Regarding `N=C(N)NCCCNCc1ccc(-n2cc3cc(-c4ccc(S(=O)(=O)N(Cc5cc(-c6ccc(Cl)cc6)on5)C5CCNCC5)cc4)[nH]c3nc2=O)cc1` [Compound 803], the “E. coli ATCC25922 MIC” value was “+ (a “+” indicates that the compound has an MIC value of 16 micrograms/ml or less)”.

Consider `NCCCNCc1ccc(-n2cc3cc(-c4ccccc4Cl)[nH]c3nc2=O)cc1` [Compound 288], for which the MIC was greater than 16 µg/mL.

Regarding `N=C(N)NCCCNCc1ccc(-n2cc3cc([C@H]4C[C@@H](N)[C@@H](CO)O4)[nH]c3nc2=O)cc1` [Compound 1266], the minimal inhibitory concentration (MIC) was less than 16 µg/mL.

Regarding `CN(C)CCCOc1cccc(-c2cc3cn(-c4ccc(CN)cc4)c(=O)nc3[nH]2)c1` [Compound 1113], the MIC was greater than 16 µg/mL.

With `N=C(N)NCCCNCc1ccc(-n2cc3cc(-c4ccc(S(=O)(=O)N(CC5CC5c5ccncc5)C5CCNCC5)cc4)[nH]c3nc2=O)cc1` (centres unmarked) [Compound 866], the “E. coli ATCC25922 MIC” value was “+ (a “+” indicates that the compound has an MIC value of 16 micrograms/ml or less)”.
